The NIST ThermoML archive (doi:10.1021/je700022b)

Assay: xn = mol fraction of the nth substance listed
Conditions: Liquid; for mass density: Constant-volume piezometry

CCCCn1cc[n+](C)c1.F[P-](F)(F)(F)(F)F [1-butyl-3-methylimidazolium hexafluorophosphate] + O=C=O
Conditions | mass density, 293.15 K [kg/m3] | mass density, 313.15 K [kg/m3] | mass density, 333.15 K [kg/m3] | mass density, 353.15 K [kg/m3] | viscosity, 293.15 K [mPa·s] | viscosity, 313.15 K [mPa·s] | viscosity, 333.15 K [mPa·s] | viscosity, 353.15 K [mPa·s]
10000 kPa, x2 = 0.056 | 1371 | 1350 | 1327 | 1306 | 372 | 119 | 49.3 | 25.2
10000 kPa, x2 = 0.123 | 1368 | 1342 | 1313 | 1286 | 277 | 84.8 | 40.6 | 21.6
10000 kPa, x2 = 0.229 | 1361 | 1329 | 1293 | 1260 | 135 | 54.1 | 27.2 | 15.8
10000 kPa, x2 = 0.332 | 1354 | 1313 | 1268 | 1226 | 89.2 | 36.9 | 20.5 | 12.3
10000 kPa, x2 = 0.44 | 1346 | 1288 | 1223 | 1162 | 43.9 | 24.7 | 16.1 | 10.7
15000 kPa, x2 = 0 | 1377 | 1362 | 1346 | 1330 | 468 | 140 | 61 | 29.3
15000 kPa, x2 = 0.056 | 1374 | 1356 | 1338 | 1319 | 397 | 125 | 51.9 | 26.4
15000 kPa, x2 = 0.123 | 1371 | 1351 | 1330 | 1310 | 287 | 90.1 | 42.8 | 22.6
15000 kPa, x2 = 0.229 | 1365 | 1344 | 1321 | 1299 | 144 | 55.8 | 28.3 | 16.5
15000 kPa, x2 = 0.332 | 1358 | 1337 | 1308 | 1284 | 91.9 | 39.9 | 21.1 | 12.7
15000 kPa, x2 = 0.44 | 1351 | 1323 | 1286 | 1255 | 45.9 | 24.8 | 16.5 | 10.8
20000 kPa, x2 = 0 | 1379 | 1364 | 1349 | 1332 | 504 | 151 | 63.2 | 30.5
20000 kPa, x2 = 0.056 | 1377 | 1360 | 1343 | 1325 | 424 | 132 | 54.5 | 28
20000 kPa, x2 = 0.123 | 1375 | 1356 | 1338 | 1319 | 310 | 92.4 | 44.2 | 23.4
20000 kPa, x2 = 0.229 | 1368 | 1350 | 1329 | 1310 | 150 | 61.2 | 29.1 | 16.9
20000 kPa, x2 = 0.332 | 1362 | 1342 | 1319 | 1298 | 100 | 41.6 | 21.7 | 12.8
20000 kPa, x2 = 0.44 | 1355 | 1330 | 1304 | 1278 | 46.8 | 26.8 | 17 | 10.9
